# Assay results as given in patent publication US9322049B2, “Activation and activators of SirT6” (CORNELL UNIVERSITY, priority 2009, dated 2016).
# Assays:
# SirT6 = molecular target: T1, SirT6 (Homo sapiens, UniProt Q8N6T7); assay: Separation of SIRT6-DNA complex on Ni-NTA resin and Kd of DNA by gel electrophoresis (Example 6); type: binding
# T1 construct: The protein expression and purification were the same as the full length SIRT6 as described above; made in house; host or cells: E. coli BL21 Codon-plus RIPL
# Protocol: The linearized DNA was incubated with SirT6 and Ni-NTA resin. The resin was washed as described in Materials and Methods, and the complex of SirT6-DNA was dissociated by 1 mM suramin. The parallel experiments were done in the presence of 500 uM H3 peptide. DNA bound to SirT6 was quantified and fit to Michaelis-Menten equation to get Kd of DNA binding to the enzyme. […] The single stranded DNA was incubated with SirT6 and Ni-NTA resin. The resin was washed and the complex of SirT6-ssDNA was dissociated by 1 mM suramin. The parallel experiments were done in the presence of 500 uM H3 peptide. […] The linearized DNA was incubated with SirT6 and Ni-NTA resin with or without H3 peptide. After washing, the resin was incubated with different concentration of surmain. The dissociated DNA was quantified by gel electrophoresis. […] After the resin was washed, DNA was dissociated with 1 mM suramin and quantified by gel electrophoresis. Lane 1, 150 ng circular pSTBlue (C-pSTBlue); Lane 2, 150 ng pSTBlue cut with BamHI (B-pSTBlue); Lane 3, 150 ng pSTBlue cut with EcoRV (E-pSTBlue); Lane 4, circular pSTBlue bound to SirT6; Lane 5, pSTBlue cut with BamHI bound to SirT6; Lane 6, pSTBlue cut with EcoRV bound to SirT6; Lane 7, circular pSTBlue bound to SirT6 in the presence of H3; Lane 8, pSTBlue cut with BamHI bound to SirT6 in the presence of H3; Lane 9, pSTBlue cut with EcoRV bound to SirT6 in the presence of H3; Lane 10, DNA ladder.
# 25% slurry of Ni-NTA resin was incubated with 5 μM SIRT6 and 500 μM H3 peptide for 1 hour at room temperature, in addition with different concentration of pSTBlue which was linearized with BamHI or different concentration of single stranded DNA, and/or 500 μM H3 peptide. After incubation, the resin was spun at 4,000 rpm for 1 minute, and was washed with 10 fold of resin volume with 10 mM imidazole, 100 mM phosphate buffer, pH 7.5, and then 10 fold volume of resin volume with 20 mM imidazole, 10 mM phosphate buffer, pH 7.5. The SIRT6-DNA complex was separated from the resin by adding 250 mM imidazole, 100 mM phosphate buffer, pH 7.5. […] The DNA bound to SIRT6 was then quantified by DNA gel electrophoresis: Linearized pSTBlue was quantified by 0.8% agarose gel electrophoresis using Tris-acetate acid buffer (1×TAE) run at room temperature; single stranded DNA was quantified by 6% acrylamide gel using Tris-boric acid buffer (1×TBE) run at room temperature. […]
# In order to test if SIRT6 distinguished different DNA in the binding, pSTBlue was cut with different enzymes and purified by […]™ III kit (MP Biomedicals, LLC). […] DNA was then dissociated from SIRT6 by adding suramin to a final concentration of 1 mM and quantified by 0.8% agarose gel electrophoresis.
# SirT1 = molecular target: T2, SirT1 (Homo sapiens, UniProt Q96EB6); assay: SirT1 deacetylation, Km of H3 with and without ssDNA; type: biochemical; settings: 100 ng/μl ssDNA
# T2 sequence (Q96EB6 1-747): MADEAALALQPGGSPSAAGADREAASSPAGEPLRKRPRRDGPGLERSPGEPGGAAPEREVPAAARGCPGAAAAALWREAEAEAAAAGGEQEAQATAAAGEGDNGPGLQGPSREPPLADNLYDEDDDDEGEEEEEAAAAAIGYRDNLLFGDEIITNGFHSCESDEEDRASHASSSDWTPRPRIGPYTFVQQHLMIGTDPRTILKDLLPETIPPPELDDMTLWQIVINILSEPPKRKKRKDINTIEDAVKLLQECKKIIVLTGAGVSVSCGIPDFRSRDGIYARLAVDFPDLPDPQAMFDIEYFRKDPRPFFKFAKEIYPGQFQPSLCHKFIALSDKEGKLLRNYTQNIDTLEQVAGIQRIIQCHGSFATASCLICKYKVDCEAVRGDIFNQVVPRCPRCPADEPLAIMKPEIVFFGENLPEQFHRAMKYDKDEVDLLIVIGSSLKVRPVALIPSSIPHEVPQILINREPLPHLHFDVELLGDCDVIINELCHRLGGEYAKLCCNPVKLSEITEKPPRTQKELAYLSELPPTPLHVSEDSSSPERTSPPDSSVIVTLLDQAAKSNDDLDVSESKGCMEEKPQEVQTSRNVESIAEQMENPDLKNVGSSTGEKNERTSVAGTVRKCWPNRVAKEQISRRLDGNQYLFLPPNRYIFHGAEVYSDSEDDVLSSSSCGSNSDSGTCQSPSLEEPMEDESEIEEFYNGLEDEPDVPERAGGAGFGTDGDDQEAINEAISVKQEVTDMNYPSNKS
# Source text: The quantified data were fit into Michaelis-Menten equation to get Km of H3.
# [1] = in the presence of 500 uM H3 peptide
# T1 sequence (Q8N6T7 whole entry): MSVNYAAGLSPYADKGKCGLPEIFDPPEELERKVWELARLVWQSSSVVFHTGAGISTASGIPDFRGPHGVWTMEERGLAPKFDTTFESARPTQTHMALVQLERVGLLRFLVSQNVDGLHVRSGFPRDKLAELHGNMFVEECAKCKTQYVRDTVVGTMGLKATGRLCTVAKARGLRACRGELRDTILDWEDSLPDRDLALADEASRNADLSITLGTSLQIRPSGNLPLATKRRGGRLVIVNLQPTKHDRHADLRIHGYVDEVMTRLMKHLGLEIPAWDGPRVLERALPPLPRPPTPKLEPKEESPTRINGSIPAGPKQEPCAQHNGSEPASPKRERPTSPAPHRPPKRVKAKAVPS
substance,measurement,setting,value
"ssDNA: ssDNA 5′ GGGGATCCATGAAGATGAGCTTTGCGTTGACT 3′ (SEQ ID NO: 9), Integrated DNA Technologies (DNA, backbone and methylation of C not given here)",Kd of DNA binding to SirT6,SirT6; in the absence of H3,195.5 µg/mL
same,Vmax of DNA bound to SirT6,SirT6; in the absence of H3,151.7 ng/µL
same,Kd of DNA binding to SirT6,SirT6; [1],238.8 µg/mL
same,Vmax of DNA bound to SirT6,SirT6; [1],333.5 ng/µL
same,Deacetylation activity of SirT1,SirT1,not activated
